In US20210186947A1, “TOMM6-INTERACTING EXTRACTS AND COMPOUNDS FOR USE IN THE TREATMENT AND PROPHYLAXIS OF NERVOUS SYSTEM DISEASES, ATHEROSCLEROSIS, HEPATITIS B INFECTION AND HUMAN PAPILLOMA VIRUS (HPV) INFECTION” (ETH ZURICH, priority 2018, published 2021):
Numbering of substitutions follows the chain as printed.

Tests used:
TOMM6 [1] = molecular target: T1, TOMM6 (Homo sapiens, UniProt Q96B49); experiment: Screening for TOMM6-inducing compounds in HEK cells, TOMM6 immunoblot; format: cell-based; design: endogenous in cells; host or cells: HEK cells; conditions: final concentration 20 microM, 60 h
T1 sequence (Q96B49 1-74): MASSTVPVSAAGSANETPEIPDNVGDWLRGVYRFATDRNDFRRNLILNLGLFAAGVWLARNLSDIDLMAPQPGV
Procedure: For immunoblot detection of (hippocampal or HEK cell) proteins, e.g. Tomm6/TOMM6 and Atp6v1a/ATP6V1A, (hippocampal) tissue was pulverized under liquid nitrogen, and HEK cell pellets were directly subjected to protein extraction. Proteins were extracted for 30 min at 4° C. with solubilization buffer (1% sodium deoxycholate, 0.1% SDS, 0.1% NP40, 5 mM EDTA, 50 mM Tris, pH 8.0) supplemented with protease/phosphatase inhibitors (Cat. No. P8349, and/or PPC1010, Sigma-Aldrich, St. Louis, Mo., USA). Particulate material was removed by centrifugation at 50 000×g for 20 min at 4° C. Solubilized proteins were concentrated and delipidated by precipitation with ice-cold acetone/methanol (12:2, final concentration 83%) for 90 min at 4° C. The pellet was dissolved in SDS-sample buffer supplemented with 2% SDS, 0.1 M DTT (or 5% mercaptoethanol), and 6 M urea for 90 min at room temperature. Proteins were stored at a concentration of 0.5 mg-1 mg/ml at −70° C. for further use. Immunoblot detection of proteins was performed with affinity-purified antibodies or F(ab)2 fragments of the respective antibodies after separation of proteins by urea-containing SDS-PAGE (7.5%-10%) under reducing conditions and electrophoretic protein transfer to PVDF membranes in a tank transfer cell (Mini Trans-Blot cell, Bio-Rad GmbH, Munchen, Germany). Bound antibodies were visualized with F(ab)2 fragments of enzyme-coupled secondary antibodies (Dianova GmbH, Hamburg, Germany) pre-absorbed to mouse serum proteins, or by enzyme-coupled protein A (EMD Millipore, Merck KGaA, Darmstadt, Germany) as applicable, and followed by enhanced chemiluminescent detection (ECL Plus, and/or ECL Prime, Amersham, GE Healthcare Life Sciences, Glattbrugg, Switzerland).
TOMM6-inducing compounds were searched for and a screening system was established in HEK cells. HEK cells were cultured in the absence and presence of a test compound at a final concentration of 20 microM. Cells were harvested, proteins were extracted and TOMM6 protein levels were determined in immunoblot with TOMM6-specific antibodies. […] The following TOMM6-interacting (inducing) compounds were identified: Compound-3: N-[(3-chlorophenyl)methyl]-2-(3-piperidyl)oxazole-4-carboxamide; Compound-4: N-[(3,4-dichlorophenyl)methyl]-2-(3-piperidyl)oxazole-4-carboxamide; Compound-5: 2-[(1S)-1-amino-2-methyl-butyl]-N-[(3,4-dichlorophenyl)methyl]oxazole-4-carboxamide; Compound-6: 2-[(1S)-1-amino-2-methyl-propyl]-N-[(3,4-dichlorophenyl)methyl]oxazole-4-carboxamide; Compound-7: 6-(aminomethyl)-4-(4-chlorophenyl)-2-methyl-pyridine-3-carboxamide; Compound-8: 4-(2,4-dichlorophenyl)-6-[(1,3-dioxoisoindolin-2-yl)methyl]-2-methyl-pyridine-3-carboxamide; Compound-9: 4-(4-chlorophenyl)-6-[(1,3-dioxoisoindolin-2-yl)methyl]-2-methyl-pyridine-3-carboxamide; and Compound-10: 4-(4-chlorophenyl)-6-(hydroxymethyl)-2-methyl-pyridine-3-carboxamide).

[2] = system: hyperphosphorylated PHF-Tau; experiment: Hippocampal hyperphosphorylated PHF-Tau in Tg2576 mice subjected to CUMS, binding assay with [125I]-labeled AT8 antibody; format: in vivo; conditions: 15 months-old Tg2576 mice, 3 months of CUMS, treated during CUMS; compounds 10 mg/kg/d
Tomm6 [3] = molecular target: T2, Tomm6 (Mus musculus, UniProt Q9CQN3); experiment: Immunoblot detection of hippocampal Tomm6 protein in treated Tg2576 mice; format: in vivo; conditions: Tg2576 AD mice subjected to the CUMS protocol, treated during CUMS (10 mg/kg/d)
T2 construct: hippocampi were isolated from 5-10 aged Tg2576 mice, pulverized under liquid nitrogen and solubilized; from tissue; host or cells: hippocampus of Tg2576 mice
T2 sequence (Q9CQN3 1-74): T1 sequence (Q96B49 1-74) with T5G, P7T, N15S, T17A, P18S, I20V, Y32F

[4] = system: hippocampal neuronal cell bodies (NeuN); experiment: Hippocampal neuronal loss in Tg2576 mice subjected to CUMS, binding assay with [125I]-labeled anti-NeuN antibody; format: in vivo; conditions: 15 months-old Tg2576 mice, 3 months of CUMS, treated during CUMS; compounds 10 mg/kg/d
[5] = Measurement of serum level in rats by HPLC; format: in vivo, Sprague Dawley rats
Procedure: (§1) Serum concentrations of alizarin were determined with serum isolated from the blood of male and female German shepherd dogs (age: 8-9 months) taken at different time points (0.5 h, 1 h, 2 h, 4 h, 6 h, 8 h, 24 h) after oral intake of the indicated doses for 4 weeks. In addition, serum concentrations of alizarin (Compound-1) were determined in male and female Sprague Dawley rats (body weight: 200-250 g) treated for 1 month and/or three months by oral gavage of alizarin at a once daily dose of 100 mg/kg, 50 mg/kg, 25 mg/kg and 12.5 mg/kg. Serum proteins were removed by acetonitrile precipitation, and alizarin was extracted by chloroform before separation on an HPLC-C18 column (Poroshell 120 EC-C18, 3.0×50 mm, Agilent) with an HPLC system (Agilent 1100 Series) and detection at OD245 nm. For quantitative determination of Compound-7 and Compound-10F in rat and dog serum, serum proteins were also removed by acetonitrile precipitation before HPLC analysis as detailed above and detection at OD254 nm.

[6] = Measurement of serum level in dogs by HPLC; format: in vivo, German shepherd dogs; conditions: for peak serum concentration: t=1 h
Procedure: as §1

[7] = Sub-chronic oral toxicity in rats; format: in vivo, Sprague Dawley rats
Procedure: Sub-chronic toxicity studies in dogs (German Shepherd dogs) and rats (Sprague Dawley rats) were performed by the Center of Applied Analytical and Veterinary Studies, Cairo, Egypt.
The oral toxicity of alizarin (Compound-1) in rats was determined in a sub-chronic toxicity study. Rats were treated for 3 months with a once daily oral dose of alizarin of 25 mg/kg/day, 50 mg/kg/day and 100 mg/kg/day. […] The good tolerability of alizarin in rats and dogs is supported by previous observations in humans, which document that long-term treatment for several years with alizarin and alizarin-containing plant extracts is not toxic and was previously used to prevent recurrence of calcium-containing urinary stones (Lorenz et al., Methods Find. Exp. Clin. Pharmacol. 7, 637-643, 1985). Taken together, alizarin has good oral bioavailability and a wide therapeutic window.
Pharmacokinetic data of Compound-7 were determined as another representative TOMM6/Tomm6 inducer with a different chemical structure than alizarin (Compound-1). […] The oral bioavailability of Compound-7 in dogs was much higher than in rats because oral doses of Compound-7 required to achieve equivalent peak serum concentrations were approximately 10-fold higher in rats compared to dogs (FIG. 20B). Again, this observation is in agreement with the equivalent surface area dosage rule, according to which rats and mice usually require a 10-12-fold higher dose than dogs and humans. […] This second peak could reflect enterohepatic recirculation of Compound-7.

[8] = Tolerability / toxicity in dogs during four weeks of oral treatment; format: in vivo; conditions: up to an oral dose of 12.5 mg/kg/day
[9] = Toxic adverse effects during 3 months of treatment of Tg2576 AD mice; format: in vivo; conditions: daily dose of 10 mg/kg
TOMM6 [10] = molecular target: T1, TOMM6; experiment: Tomm6 induction, test not described
[11] = rats, repeated once daily oral intake of 20 mg/kg/d

Row | SMILES | TOMM6 protein level in HEK cells (TOMM6 [1]) | hippocampal content of hyperphosphorylated PHF-Tau [2] | hippocampal Tomm6 protein content (Tomm6 [3]) | hippocampal neuronal loss [4] | further results
1 | O=C(NCc1ccc(Cl)c(Cl)c1)c1coc(C2CCCNC2)n1 (stereo not shown) [Compound-4, N-[(3,4-dichlorophenyl)methyl]-2-(3-piperidyl)oxazole-4-carboxamide] | inducers of TOMM6 | decreased hippocampal PHF tau hyperphosphorylation | strong increase in hippocampal Tomm6 protein content | retarded overt neuronal loss | 
2 | Cc1nc(CN)cc(-c2ccc(Cl)cc2)c1C(N)=O [Compound-7, 6-(aminomethyl)-4-(4-chlorophenyl)-2-methyl-pyridine-3-carboxamide] | inducers of TOMM6 | decreased hippocampal PHF tau hyperphosphorylation | strong increase in hippocampal Tomm6 protein content | retarded overt neuronal loss | oral bioavailability / serum concentrations after oral intake ([5]; rats): has oral bioavailability; oral doses required to achieve equivalent peak serum concentrations, higher in rats compared to dogs ([5]; rats vs dogs): approximately 10 fold; time of peak serum concentration [5, 11]: 1 h; time of second serum peak [5, 11]: 3 h; oral bioavailability / serum concentrations after oral intake [6]: has oral bioavailability; peak serum concentration ([6]; repeated once daily oral dose of 2 mg/kg): 0.59 µg/mL; peak serum concentration ([6]; repeated once daily oral dosing of 5 mg/kg): 1.56 µg/mL; peak serum concentration ([6]; repeated once daily oral dosing of 12.5 mg/kg): 3.96 µg/mL; daily food intake ([7]; rats, daily oral dose of 100 mg/kg/d): slightly decreased daily food intake; toxic side effects ([7]; rats, up to an oral dose of 50 mg/kg/day, four weeks): did not show any detectable toxic side effects; difference between therapeutic and toxic doses (therapeutic index) ([7]; therapeutic dose 10 mg/kg once daily in rodent models): approximately 10 fold; toxic side effects [8]: did not show any detectable toxic side effects
3 | Cc1nc(CN2C(=O)c3ccccc3C2=O)cc(-c2ccc(Cl)cc2)c1C(N)=O [Compound-9, 4-(4-chlorophenyl)-6-[(1,3-dioxoisoindolin-2-yl)methyl]-2-methyl-pyridine-3-carboxamide] | inducers of TOMM6 |  |  |  | 
4 | Cc1nc(CO)cc(-c2ccc(Cl)cc2)c1C(N)=O [Compound-10, 4-(4-chlorophenyl)-6-(hydroxymethyl)-2-methyl-pyridine-3-carboxamide] | inducers of TOMM6 | significantly inhibited the hippocampal accumulation of hyperphosphorylated PHF tau | significantly higher | retarded the CUMS-induced hippocampal neuronal loss | toxic adverse effects [9]: did not show any detectable toxic adverse effects
5 | C[C@@H]1CCO[C@H]2Cn3cc(C(=O)NCc4ccc(F)cc4F)c(=O)c(O)c3C(=O)N12 [dolutegravir] |  |  |  |  | Tomm6 induction (TOMM6 [10]): not a Tomm6 inducer

More lines, main results first:

Row | TOMM6 protein level in HEK cells (TOMM6 [1]) | SMILES | hippocampal content of hyperphosphorylated PHF-Tau [2] | hippocampal Tomm6 protein content (Tomm6 [3]) | hippocampal neuronal loss [4] | further results
6 | inducers of TOMM6 | O=C(NCc1cccc(Cl)c1)c1coc(C2CCCNC2)n1 (stereo not shown) [Compound-3, N-[(3-chlorophenyl)methyl]-2-(3-piperidyl)oxazole-4-carboxamide] |  |  |  | 
7 | inducers of TOMM6 | CCC(C)[C@H](N)c1nc(C(=O)NCc2ccc(Cl)c(Cl)c2)co1 (stereo partly drawn) [Compound-5, 2-[(1S)-1-amino-2-methyl-butyl]-N-[(3,4-dichlorophenyl)methyl]oxazole-4-carboxamide] |  |  |  | 
8 | inducers of TOMM6 | CC(C)[C@H](N)c1nc(C(=O)NCc2ccc(Cl)c(Cl)c2)co1 [Compound-6, 2-[(1S)-1-amino-2-methyl-propyl]-N-[(3,4-dichlorophenyl)methyl]oxazole-4-carboxamide] |  |  |  | 
9 | inducers of TOMM6 | Cc1nc(CN2C(=O)c3ccccc3C2=O)cc(-c2ccc(Cl)cc2Cl)c1C(N)=O [Compound-8, 4-(2,4-dichlorophenyl)-6-[(1,3-dioxoisoindolin-2-yl)methyl]-2-methyl-pyridine-3-carboxamide] |  |  |  | 
